These results are taken from ChEMBL document CHEMBL5120919, “Micrococcin P2 Targets Clostridioides difficile” (J Nat Prod, 2022).

Series [1] relates to Clostridioides difficile. In words: Antibacterial activity against Clostridioides difficile RT017/ST37 clinical isolate expressing A-B+ toxin assessed as inhibition of bacterial growth incubated for 24 hrs by CLSI based agar dilution method. Format: functional.
Series [2] concerns Clostridioides difficile. In words: Antibacterial activity against Clostridioides difficile RT002/ST8 clinical isolate expressing A+B+ toxin assessed as inhibition of bacterial growth incubated for 24 hrs by CLSI based agar dilution method. Format: functional.
Series [3] relates to Clostridioides difficile. The experiment in a line: Antibacterial activity against Clostridioides difficile ST221 clinical isolate expressing A+B+CDT+ toxin assessed as inhibition of bacterial growth incubated for 24 hrs by CLSI based agar dilution method. Format: functional.
Series [4] concerns Clostridioides difficile. In words: Antibacterial activity against Clostridioides difficile RT012/ST54 clinical isolate expressing A+B+ toxin assessed as inhibition of bacterial growth incubated for 24 hrs by CLSI based agar dilution method. Format: functional.
Series [5] has as its system Clostridioides difficile. In words: Antibacterial activity against Clostridioides difficile RT027 infected in DSS-induced IBD C57BL/6 mouse model assessed as survival rate at 30 mg/kg, po administered once daily for 5 days. Format: functional. Particulars: time 5 day.
Series [6] relates to Clostridioides difficile. The experiment in a line: Antibacterial activity against Clostridioides difficile RT027 assessed as reduction in bacterial count at 1 to 4 times MIC measured after 24 hrs by CLSI based time kill curve assay. Format: functional.
Series [7] is described as follows: Volume of distribution at steady state in Sprague-Dawley rat at 2 mg/kg, iv measured up to 8 hrs by LC-MS/MS analysis. Format: ADME, organism-based. To be noted: in vivo, read-out: Vdss.
A short description of series [8]: MRT in Sprague-Dawley rat at 2 mg/kg, iv measured up to 8 hrs by LC-MS/MS analysis. Format: ADME, organism-based. Particulars: in vivo.
Series [9] is described as follows: MRT in Sprague-Dawley rat at 10 mg/kg, po measured up to 8 hrs by LC-MS/MS analysis. Format: ADME, organism-based. Particulars: in vivo, BLD = below limit of detection.
The subject of series [10] is Clostridioides difficile. In words: Antibacterial activity against Clostridioides difficile RT027/ST1 clinical isolate expressing A+B+CDT+ toxin assessed as inhibition of bacterial growth incubated for 24 hrs by CLSI based agar dilution method. Format: functional.
Series [11] has as its system Clostridioides difficile. In words: Antibacterial activity against Clostridioides difficile RT078/ST11 clinical isolate expressing A+B+CDT+ toxin assessed as inhibition of bacterial growth incubated for 24 hrs by CLSI based agar dilution method. Format: functional.
The test system of series [12] is RAW264.7. In words: Antiinflammatory activity in mouse RAW264.7 cells assessed as decrease in LPS induced IL6 expression in supernatant at 5 to 40 uM measured after 24 hrs by ELISA. To be noted: dose 5-40 µM. Format: functional, cell-based.
Another series relates to HEK-293T. The experiment in a line: Cytotoxicity against HEK293T cells assessed as reduction in cell viability at 40 uM incubated for 48 hrs by CCK-8 assay. Format: toxicity, cell-based. To be noted: human.
Series [13] can be described thus: Clearance in Sprague-Dawley rat at 2 mg/kg, iv measured up to 8 hrs by LC-MS/MS analysis. Format: ADME, organism-based. To be noted: in vivo.
The nature of series [14]: Half life in Sprague-Dawley rat at 10 mg/kg, po measured up to 8 hrs by LC-MS/MS analysis. Format: ADME, organism-based. Particulars: in vivo, BLD = below limit of detection.
The subject of series [15] is Clostridioides difficile. The experiment in a line: Antibacterial activity against Clostridioides difficile RT130/ST5 clinical isolate expressing A+B+CDT+ toxin assessed as inhibition of bacterial growth incubated for 24 hrs by CLSI based agar dilution method. Format: functional.
Series [16] can be described thus: Volume of distribution at steady state in Sprague-Dawley rat at 10 mg/kg, po measured up to 8 hrs by LC-MS/MS analysis. Format: ADME, organism-based. To be noted: in vivo, BLD = below limit of detection.
Series [17] deals with Clostridioides difficile. The experiment in a line: Antibacterial activity against Clostridioides difficile RT014/ST14 clinical isolate expressing A+B+ toxin assessed as inhibition of bacterial growth incubated for 24 hrs by CLSI based agar dilution method. Format: functional.
A further series concerns SH-SY5Y. The experiment in a line: Cytotoxicity against human SH-SY5Y cells assessed as reduction in cell viability at 40 uM incubated for 48 hrs by CCK-8 assay. Format: toxicity, cell-based.
In series [18] the test system is Clostridioides difficile. The experiment in a line: Antibacterial activity against Clostridioides difficile RT001/ST3 clinical isolate expressing A+B+ toxin assessed as inhibition of bacterial growth incubated for 24 hrs by CLSI based agar dilution method. Format: functional.
The subject of series [19] is Clostridioides difficile. The experiment in a line: Antibacterial activity against Clostridioides difficile RT293/ST129 clinical isolate expressing A+B+ toxin assessed as inhibition of bacterial growth incubated for 24 hrs by CLSI based agar dilution method. Format: functional.
Series [20] is described as follows: Clearance in Sprague-Dawley rat at 10 mg/kg, po measured up to 8 hrs by LC-MS/MS analysis. Format: ADME, organism-based. Particulars: in vivo, BLD = below limit of detection.
Series [21] can be described thus: AUClast in Sprague-Dawley rat at 2 mg/kg, iv measured up to 8 hrs by LC-MS/MS analysis. Format: ADME, organism-based. Also on record: time < 8 hrs, dose 2 mg/kg, route iv. To be noted: in vivo.
For series [22], the system named is Clostridioides difficile. In words: Antibacterial activity against Clostridioides difficile RT018/ST17 clinical isolate expressing A+B+ toxin assessed as inhibition of bacterial growth incubated for 24 hrs by CLSI based agar dilution method. Format: functional.
The subject of series [23] is Clostridioides difficile. In words: Antibacterial activity against Clostridioides difficile RT027 assessed as regrowth of bacteria at 0.5 times MIC measured after 6 hrs by CLSI based time kill curve assay. Format: functional, organism-based.
Series [24] relates to Clostridioides difficile. In words: Antibacterial activity against Clostridioides difficile RT015/ST35 clinical isolate expressing A+B+ toxin assessed as inhibition of bacterial growth incubated for 24 hrs by CLSI based agar dilution method. Format: functional.
The subject of series [25] is RAW264.7. The experiment in a line: Antiinflammatory activity in mouse RAW264.7 cells assessed as decrease in LPS induced IL-1beta expression in supernatant at 5 to 40 uM measured after 24 hrs by ELISA. Format: functional, cell-based. To be noted: dose 5-40 µM.
Series [26] can be described thus: Half life in Sprague-Dawley rat at 2 mg/kg, iv measured up to 8 hrs by LC-MS/MS analysis. Format: ADME, organism-based. Particulars: in vivo.
For series [27], the system named is Clostridioides difficile. In words: Antibacterial activity against Clostridioides difficile RT027 assessed as reduction in bacterial count at 5 ug/ml measured after 24 hrs by CLSI based time kill curve assay. Format: functional. Particulars: dose 5 µg/ml.

≈ marks a conversion by molar mass, not a printed value. Calls of active or inactive are those of the source. No cut-off for these calls is given here.

As to `C/C=C(\NC(=O)c1csc(-c2csc(-c3ccc4c(n3)-c3csc(n3)[C@H]([C@@H](C)O)NC(=O)c3csc(n3)[C@H](C(C)C)NC(=O)c3csc(n3)/C(=C/C)NC(=O)[C@H]([C@@H](C)O)NC(=O)c3csc-4n3)n2)n1)C(=O)NCC(C)=O`, the MIC was determined as 1 µg/mL (≈ 0.875 µM) in the series with Clostridioides difficile [1]; 1 µg/mL (≈ 0.875 µM) in the series on Clostridioides difficile [2]; 2 µg/mL (≈ 1.75 µM) in the series with Clostridioides difficile [3]; 2 µg/mL (≈ 1.75 µM) with Clostridioides difficile [4]; 1 µg/mL (≈ 0.875 µM) in the series on Clostridioides difficile [10]; 1 µg/mL (≈ 0.875 µM) with Clostridioides difficile [11]. Moreover, the MIC with Clostridioides difficile [15] worked out at 1 µg/mL (≈ 0.875 µM); with Clostridioides difficile [17], 1 µg/mL (≈ 0.875 µM); in the series on Clostridioides difficile [18], 2 µg/mL (≈ 1.75 µM); with Clostridioides difficile [19] it was 1 µg/mL (≈ 0.875 µM); in the series with Clostridioides difficile [22], 1 µg/mL (≈ 0.875 µM); in the series with Clostridioides difficile [24], 1 µg/mL (≈ 0.875 µM). Moreover, the Activity in the series on Clostridioides difficile [5] was 100%; with Clostridioides difficile [6], 2.5 log10CFU; with HEK-293T, “Non-Toxic”; with SH-SY5Y, “Non-Toxic”. Further, in series [7], the Vd came out at 2.1 L/kg. Also, the MRT in series [8] was 24 min; in [9] it was “Bld”. Further, the result in the series on RAW264.7 [12], in the series with Clostridioides difficile [23] and in the series on RAW264.7 [25] was Active. Moreover, in series [13], the clearance was found to be 88.9 mL/min/kg. In series [14], the t1/2 entry is reported as “Bld”. Besides, in series [16], the Vdss entry was “Bld”. In addition, in [20], the CL entry was “Bld”. The same compound displayed an AUC(0-t) at 8 h in series [21] of 374 ng·h/mL. Moreover, the half-life in series [26] was 48 min.

In the case of `CN[C@H](CC(C)C)C(=O)N[C@H]1C(=O)N[C@@H](CC(N)=O)C(=O)N[C@H]2C(=O)N[C@H]3C(=O)N[C@H](C(=O)N[C@H](C(=O)O)c4cc(O)cc(O)c4-c4cc3ccc4O)[C@H](O)c3ccc(c(Cl)c3)Oc3cc2cc(c3O[C@@H]2O[C@H](CO)[C@@H](O)[C@H](O)[C@H]2O[C@H]2C[C@](C)(N)[C@H](O)[C@H](C)O2)Oc2ccc(cc2Cl)[C@H]1O` [VANCOMYCIN], the Activity in the series with Clostridioides difficile [27] was determined as 1.5 log10CFU. Moreover, the MIC in the series with Clostridioides difficile [1] worked out at 0.5 µg/mL (≈ 0.345 µM); with Clostridioides difficile [2], 1 µg/mL (≈ 0.69 µM); with Clostridioides difficile [3], 1 µg/mL (≈ 0.69 µM); in the series on Clostridioides difficile [4] it was 1 µg/mL (≈ 0.69 µM); with Clostridioides difficile [10] it was 0.5 µg/mL (≈ 0.345 µM); with Clostridioides difficile [11] it was 1 µg/mL (≈ 0.69 µM). Besides, the MIC in the series on Clostridioides difficile [15] came to 0.5 µg/mL (≈ 0.345 µM); in the series on Clostridioides difficile [17], 1 µg/mL (≈ 0.69 µM); in the series with Clostridioides difficile [18], 1 µg/mL (≈ 0.69 µM); with Clostridioides difficile [19], 1 µg/mL (≈ 0.69 µM); with Clostridioides difficile [22], 0.5 µg/mL (≈ 0.345 µM); in the series on Clostridioides difficile [24], 1 µg/mL (≈ 0.69 µM).
